Legend:
[1] = Distribution in normal rat brain after CED, fluorescence microscopy; conditions: for local brain tissue damage: free SN-38 infused by CED into normal rat brain
Description: Serial coronal tissue sections (20 μm thickness) were prepared using Tissue-Tek Cryo3 (Sakura Finetek USA, Inc., Torrance, Calif.), and frozen sections were examined under a fluorescence microscope, BIOREVO BZ9000 (Keyence, Osaka, Japan), at an excitation wavelength of 377 nm and an emission wavelength 447 nm to evaluate the distribution of NK012 within the tissues. Image data were recorded using BZ-II Analyzer 1.10 software (Keyence).
Animals were euthanized immediately after infusion and serial sections were obtained using a cryostat (20 μm thickness; 1 mm interval).

[2] = system: 9L orthotopic brain tumor model; test: Survival study, 9L orthotopic brain tumor model; format: in vivo, rat; conditions: rats with 9L tumor, 0.04 mg by single CED on day 5 after implantation
Description: Fischer 344 rats were used for the 9L model, and F344/NJc1-rnu/rnu (nude) rats were used for the U87MG model. […] Briefly, 9L and U87MG cells were harvested using trypsin-EDTA following washing once with complete medium, and resuspended in cold phosphate-buffered saline (PBS) for implantation. A cell suspension containing 1×10^4 (9L) or 2×10^5 (U87MG) cells per 10 μl of PBS was used for implantation into the striatum region of rat brains. Under deep isoflurane anesthesia, rats were placed in a small animal stereotactic frame (David Kopf Instruments, Tujunga, Calif.). […] Five microliters of cell suspension were injected at a depth of 4.5 mm from the brain surface. After a wait of 2 minutes, another 5 μl were injected at a depth of 4 mm. After a final wait of 2 minutes, the needle was removed, and the wound was closed with sutures.
Fourteen rats with implanted U87MG tumor cells were randomly divided into two groups on day 5 after tumor cell implantation and treated as follows: (1) CED of PBS (n=7) as a control, and (2) CED of NK012 (n=7). […] All other rats were monitored daily for survival. Survival was compared between the treatment groups using a log-rank test. Estimated survival was expressed as a Kaplan-Meier curve.

7-ethyl-10-hydroxy-camptothecine [SN-38]
distribution after CED (description) ([1]; CED into normal rat striatum, fluorescence of SN-38): quite restricted | local brain tissue damage [1]: severe local tissue damage | local brain tissue damage ([1]; listed as free SN-38): increased local brain damage | median survival [2]: 28 days | survival range after tumor cell implantation [2]: 24 to 30 days
